Experiments:
HDAC [1] = assay: Homogeneous cellular histone deacetylase assay, Hela; format: cell-based, human; settings: for IC50: Supplementary Table 2, NA = not active up to highest concentration tested (100 μM), >100 = IC50 not reached at 100 μM, read-out: IC50-HDAC Hela
Protocol: (§1) The enzymatic activity of HDAC was measured in intact cells using the homogeneous cellular assay method. A cell-permeable peptide Boc-K(Ac)-AMC used as the HDAC substrate, after deacetylation it is cleaved by trypsin to release the fluorescent 7-amino-4-methylcoumarin (AMC) and further quantified.
(§2) The manual assay was developed by Thomas's group. […] After 24 h, 9 μl inhibitors with different concentration were added to the HeLa cells and incubation was continued for 3 h under cell culture conditions. After this treatment period, 10 μl of a 2 mM stock solution of the substrate Boc-K(Ac)-AMC was added into the 96 well plates with Hela cells and inhibitors. […] A549 and K562 cell lines used the same method, respectively. IC50s were calculated using GraphPad Prizm statistical package with sigmoidal variable slope dose response curve fit.

HDAC [2] = assay: Homogeneous cellular histone deacetylase assay, K562; format: cell-based, human; settings: Supplementary Table 2; NA = not active up to highest concentration tested (100 μM); >100 = IC50 not reached at 100 μM; read-out: IC50-HDAC K562
Protocol: as §1, §2

HDAC [3] = assay: Homogeneous cellular histone deacetylase assay, A549; format: cell-based, human; settings: Supplementary Table 2; NA = not active up to highest concentration tested (100 μM); >100 = IC50 not reached at 100 μM
Protocol: as §1, §2

MCF-7 cells = assay: Cell anti-proliferation / toxicity assay (CCK-8), MCF-7; format: cell-based; settings: Homo sapiens, MCF7; Supplementary Table 4; 72 h, CCK-8; >100 = not reached at 100 μM; read-out: EC50 MCF-7
Protocol: (§3) Cell anti-proliferation assays were performed to determine the toxicity of these inhibitors. […] These compounds were further evaluated against the control cell line HEK293 to test their toxicity with a non-cancerous cell line.
And then the cells were exposed to the different inhibitors with various concentrations for 72 h. […] EC50s were calculated using GraphPad Prizm statistical package with sigmoidal variable slope dose response curve fit.

G9a = molecular target: T1, G9a (Homo sapiens, UniProt Q96KQ7); assay: H3K9Me2 cell immunofluorescence In-Cell Western (ICW) assay in MDA-MB-231; format: cell-based; settings: MDA-MB-231 cell line, 48 h exposure
T1 construct: endogenous in cells; host or cells: MDA-MB-231
T1 sequence (Q96KQ7 1-1210): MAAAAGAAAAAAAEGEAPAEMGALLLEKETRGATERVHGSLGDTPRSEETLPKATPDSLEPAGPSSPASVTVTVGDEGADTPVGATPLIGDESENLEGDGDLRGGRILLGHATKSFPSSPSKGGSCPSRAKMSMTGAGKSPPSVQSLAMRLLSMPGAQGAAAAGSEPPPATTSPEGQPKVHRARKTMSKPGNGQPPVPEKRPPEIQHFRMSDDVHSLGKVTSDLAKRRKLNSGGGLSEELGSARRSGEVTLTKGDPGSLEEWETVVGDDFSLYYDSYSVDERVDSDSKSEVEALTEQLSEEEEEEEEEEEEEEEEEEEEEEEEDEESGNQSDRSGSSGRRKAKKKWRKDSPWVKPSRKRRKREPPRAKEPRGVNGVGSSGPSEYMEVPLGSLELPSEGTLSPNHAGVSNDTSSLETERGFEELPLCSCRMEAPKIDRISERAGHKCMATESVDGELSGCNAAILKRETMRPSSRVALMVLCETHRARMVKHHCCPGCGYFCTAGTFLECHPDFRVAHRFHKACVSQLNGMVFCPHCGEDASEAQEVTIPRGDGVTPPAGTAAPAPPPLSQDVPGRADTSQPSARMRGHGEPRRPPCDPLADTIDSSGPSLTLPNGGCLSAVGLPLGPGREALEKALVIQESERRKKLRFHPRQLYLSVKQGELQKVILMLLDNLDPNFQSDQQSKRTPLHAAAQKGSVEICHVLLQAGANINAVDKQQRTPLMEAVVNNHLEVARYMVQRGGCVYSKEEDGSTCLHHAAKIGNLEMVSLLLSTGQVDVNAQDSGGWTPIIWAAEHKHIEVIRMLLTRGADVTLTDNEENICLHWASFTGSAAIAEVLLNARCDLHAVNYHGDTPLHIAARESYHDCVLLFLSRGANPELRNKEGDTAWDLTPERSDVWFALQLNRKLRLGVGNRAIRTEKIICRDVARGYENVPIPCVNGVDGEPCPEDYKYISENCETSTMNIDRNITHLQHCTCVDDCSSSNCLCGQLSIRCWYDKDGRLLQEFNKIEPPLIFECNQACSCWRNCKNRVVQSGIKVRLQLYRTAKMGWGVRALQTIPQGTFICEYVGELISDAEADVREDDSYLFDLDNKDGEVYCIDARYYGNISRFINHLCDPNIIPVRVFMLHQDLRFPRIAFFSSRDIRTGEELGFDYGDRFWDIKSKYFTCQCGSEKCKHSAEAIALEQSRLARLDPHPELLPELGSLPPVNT
Protocol: After the incubation, the media was removed and 100 μl fixation and permeabilization solution (2% formaldehyde in PBS) for fixation was added for 30 min. And then use 200 μl 0.1% Triton X100 in PBS washing solution to wash (allow wash to shake on a plate shaker for 5 min). After five washes, cells were blocked for 1 h with 150 μl blocking buffer to each well (1% BSA in PBS) (allow blocking at room temperature with moderate shaking on a plate shaker). After 1 h, remove the blocking buffer from the blocking step and add primary antibody in blocking buffer to cover the bottom of each well. […] The plates were read on an Odyssey CLX (LiCor) scanner at both 800 nm (H3K9me2 signal) and 700 nm (cell tag 700 stain signal) channels. IC50s were calculated using GraphPad Prizm statistical package with sigmoidal variable slope dose response curve fit.

MDA-MB-231 cells = assay: Cell anti-proliferation / toxicity assay (CCK-8), MDA-MB-231; format: cell-based; settings: Homo sapiens, MDA-MB-231; Supplementary Table 4; 72 h, CCK-8; >100 = not reached at 100 μM; read-out: EC50 MDA-MB-231
Protocol: Initial tests designed around assessing whether a synergistic effect would be observed in real when a combination of G9a inhibitor and HDAC inhibitor used in conjunction.
as §3, with “inhibitors. Several cell lines (MDA-MB-231, MCF-7 and A549) were incubated and then treated with varying concentrations of the inhibitors for 72 h, respectively.” for “inhibitors.”
A549, MDA-MB-231, MCF-7 and HEK293 cells were seeded at 8000-10000 cells (100 μl) in white 96-well plates and pre-incubate the plate for 24 h under standard cell culture conditions, respectively. And then the cells were exposed to the different inhibitors with various concentrations for 72 h. Finally, 10 μl of CCK-8 kit solution was added to each well and incubated for 3-4 hours under standard cell culture conditions, and the 96 well plates were measured the absorbance at 450 nm using Perkin–Elmer Wallac Victor ^3V 1420 multi label plate reader (Perkin–Elmer, Wellesley, USA). EC50s were calculated using GraphPad Prizm statistical package with sigmoidal variable slope dose response curve fit.

Compound `COc1ccc2c(NC3CCN(Cc4ccccc4)CC3)nc(NCCNC(=O)CCCCC(=O)NO)nc2c1` [Compound 15, N1-(2-((4-((1-benzylpiperidin-4-yl)amino)-7-methoxyquinazolin-2-yl)amino)ethyl)-N6-hydroxyadipamide] has an IC50 (HDAC [1]) of over 100 µM, an IC50 (HDAC [2]) of over 100 µM and an IC50 (HDAC [3]) of over 100 µM. It also gave an EC50 (MCF-7 cells) of over 100 µM, an IC50 (G9a) of 72.1 ± 1.37 µM and an EC50 (MDA-MB-231 cells) of 95.2 µM.

With `COc1cc2nc(NCCNC(=O)CCCCCC(=O)NO)nc(NC3CCN(Cc4ccccc4)CC3)c2cc1OC` [Compound 5b, N1-(2-((4-((1-benzylpiperidin-4-yl)amino)-6,7-dimethoxyquinazolin-2-yl)amino)ethyl)-N7-hydroxyheptanediamide] the “HDAC inhibition (in words)” value (HDAC [1]; candidates tested in both Hela and K562 cell lines, compared with Compound 14) was “did not show decent inhibition of HDAC”, the EC50 (MCF-7 cells) was 74.6 ± 1.81 µM and the IC50 (G9a) was 87.4 ± 5.44 µM. For the same compound, the EC50 (MDA-MB-231 cells) was 12.3 ± 3.27 µM.

In the case of `COc1cc2nc(NCCNC(=O)CCCC(=O)NO)nc(NC3CCN(C)CC3)c2cc1OC` [Compound 7, N1-(2-((6,7-dimethoxy-4-((1-methylpiperidin-4-yl)amino)quinazolin-2-yl)amino)ethyl)-N5-hydroxyglutaramide], the EC50 (MCF-7 cells) is reported as over 100 µM, the IC50 (G9a) is reported as 76.7 ± 0.89 µM and the EC50 (MDA-MB-231 cells) is reported as over 100 µM.

With `COc1ccc2c(NCCNC(=O)CCCCCC(=O)NO)nc(N3CCCN(C)CC3)nc2c1` [Compound 22, N1-hydroxy-N7-(2-((7-methoxy-2-(4-methyl-1,4-diazepan-1-yl)quinazolin-4-yl)amino)ethyl)heptanediamide] the IC50 (HDAC [1]) was over 100 µM, the IC50 (HDAC [2]) was over 100 µM and the IC50 (HDAC [3]) was over 100 µM. For the same compound, the EC50 (MCF-7 cells) was over 100 µM, the IC50 (G9a) was 60.6 ± 3.66 µM and the EC50 (MDA-MB-231 cells) was over 100 µM.

Work on `COc1cc2nc(N3CCCN(C)CC3)nc(NC3CCN(C(=O)CCCCCCC(=O)NO)CC3)c2cc1OC` [Compound 19, 8-(4-((6,7-dimethoxy-2-(4-methyl-1,4-diazepan-1-yl)quinazolin-4-yl)amino)piperidin-1-yl)-N-hydroxy-8-oxooctanamide] yielded an IC50 (HDAC [1]) of over 100 µM, an IC50 (HDAC [2]) of over 100 µM and an IC50 (HDAC [3]) of over 100 µM. For the same compound, the EC50 (MCF-7 cells) was over 100 µM, the IC50 (G9a) was 99.6 ± 3.13 µM and the EC50 (MDA-MB-231 cells) was over 100 µM.

For `COc1cc2nc(N3CCCN(C)CC3)nc(NC3CCN(C(=O)CCCCCC(=O)NO)CC3)c2cc1OC` [Compound 20, 7-(4-((6,7-dimethoxy-2-(4-methyl-1,4-diazepan-1-yl)quinazolin-4-yl)amino)piperidin-1-yl)-N-hydroxy-7-oxoheptanamide], the IC50 (HDAC [1]) was over 100 µM, the IC50 (HDAC [2]) was over 100 µM and the IC50 (HDAC [3]) was over 100 µM. The EC50 (MCF-7 cells) was over 100 µM, the IC50 (G9a) was 97.5 ± 2.78 µM and the EC50 (MDA-MB-231 cells) was over 100 µM.

For `COc1cc2nc(NCCNC(=O)CCCC(=O)NO)nc(NC3CCN(C(C)C)CC3)c2cc1OC` [Compound 7a, N1-hydroxy-N5-(2-((4-((1-isopropylpiperidin-4-yl)amino)-6,7-dimethoxyquinazolin-2-yl)amino)ethyl)glutaramide], the EC50 (MCF-7 cells) was over 100 µM, the IC50 (G9a) was 54.6 ± 3.05 µM and the EC50 (MDA-MB-231 cells) was over 100 µM.

With `COc1cc2nc(NCCNC(=O)CCCCCCC(=O)NO)nc(NC3CCN(C)CC3)c2cc1OC` [Compound 4, N1-(2-((6,7-dimethoxy-4-((1-methylpiperidin-4-yl)amino)quinazolin-2-yl)amino)ethyl)-N8-hydroxyoctanediamide] the EC50 (MCF-7 cells) was over 100 µM, the IC50 (G9a) was 96.7 ± 1.68 µM and the EC50 (MDA-MB-231 cells) was over 100 µM.

`COc1cc2nc(NCCNC(=O)CCCCCCC(=O)NO)nc(NC3CCN(C(C)C)CC3)c2cc1OC` [Compound 4a, N1-hydroxy-N8-(2-((4-((1-isopropylpiperidin-4-yl)amino)-6,7-dimethoxyquinazolin-2-yl)amino)ethyl)octanediamide] was tested, and the EC50 (MCF-7 cells) was over 100 µM, the IC50 (G9a) was 74.2 ± 1.94 µM and the EC50 (MDA-MB-231 cells) was over 100 µM.

Work on `COc1cc2nc(NCCNC(=O)CCCCCC(=O)NO)nc(NC3CCN(C(C)C)CC3)c2cc1OC` [Compound 5a, N1-hydroxy-N7-(2-((4-((1-isopropylpiperidin-4-yl)amino)-6,7-dimethoxyquinazolin-2-yl)amino)ethyl)heptanediamide] yielded an EC50 (MCF-7 cells) of over 100 µM, an IC50 (G9a) of 66.6 ± 3.98 µM and an EC50 (MDA-MB-231 cells) of over 100 µM.

Reference: PMC5609913, “Structure based design, synthesis and activity studies of small hybrid molecules as HDAC and G9a dual inhibitors” (Oncotarget, 2017)
